Experimental data taken from patent US20080262064A1, “Novel Compounds For The Treatment Of GI Disorders 682” (ASTRAZENECA AB, priority 2007, published 2008).

target: T1, GABAB receptor (Homo sapiens, UniProt O75899+Q9UBS5); assay: [35S]-GTPγS binding assay, potency of PAM on the GABA dose-response; type: biochemical; conditions: membranes from CHO cell lines expressing GABAB receptor; GABA in presence or absence of PAM
T1 construct: expressed in transfected cells
Excerpt: GABABR1a and GABABR2 were cloned from human brain cDNA and subcloned into pCI-Neo (Promega) and pALTER-1(Promega), respectively. A GABABR1a-Gαqi5 fusion protein expression vector was constructed using the pCI-Neo-GABABR1a cDNA plasmid and pLEC1-Gαqi5 (Molecular Devices, Calif.). In order to make the Gαqi5 pertussis toxin insensitive, Cys356 was mutated to Gly using standard PCR methodology with the primers 5′-[…]-3′ (forward) and 5′-GCGGCCG […]-3′ (reverse). The Gαqi5mut cDNA was ligated into the BamHI and NotI sites of pcDNA3.0 (Invitrogen). The GABAB R1a coding sequence was amplified by PCR from pCI-Neo-GABABR1a using the primers, 5′-[…]-3′ (forward) and 5′-[…]-3′ (reverse) and subcloned into the BamHI site of pcDNA3.0-Gαqis5mut.
For generation of a cell line expressing the GABABR1a/GABABR2 heterodimer, GABABR1a plasmid DNA (4 μg) GABABR2 plasmid DNA (4 μg) and lipofectamine (24 μl) were mixed in 5 ml OptiMEM and incubated for 45 minutes at room temperature. The cells were exposed to the transfection medium for 5 hours, which then was replaced with culture medium. The cells were cultured for an additional 10 days before selection agents (300 μg/ml hygromycin and 400 μg/ml geneticin) were added. Twenty-four days after transfection, single cell sorting into 96-well plates by flow cytometry was performed using a FACS Vantage SE (Becton Dickinson, Palo Alto, Calif.), After expansion, the GABAB receptor functional response was tested using the FLIPR assay described below. The clone with the highest functional response was collected, expanded and then subcloned by single cell sorting. The clonal cell line with the highest peak response in the FLIPR was used in the present study.
For generation of a stable cell line expressing GABABR1a-Gαqi5 fusion protein and GABABR2, GABABR1a-Gαqi5mut plasmid DNA (8 μg) GABABR2 plasmid DNA (8 μg) and lipofectamine (24 μl) were mixed in 5 ml OptiMEM and incubated for 45 minutes at room temperature. The cells were exposed to the transfection medium for 5 hours, which then was replaced with culture medium. After forty-eight hours, the cells were detached and seeded in 6 well plates (2000 cells well) and grown in culture medium supplemented with geneticin (400 μg/ml) and zeocin (250 μg/ml). After 4 days, cells from single colonies were collected and transferred to a 24-well plate. After 10 days, the cell clones were seeded in T-25 flasks and grown for another 16 days before they were tested for GABAB receptor mediated functional response. […] The clonal cell line that gave the highest peak response in the FLIPR was used in the present study.
[^35S]-GTPγS binding assays were performed at 30° C. for 45 min in membrane buffer (100 mM NaCl, […], 1 mM EDTA, 50 mM HEPES, pH 7.4) containing 0.025 μg/μl of membrane protein (prepared from the cell lines described above) with 0.01% bovine serum albumin (fatty acid free): 10 μM GDP, 100 μM DTT and 0.53 nM [^35S]-GTPγS (Amersham-Pharmacia Biotech) in a final volume of 200 μl. Non-specific binding was determined in the presence of 20 μM GTPγS. The reaction was started by the addition of GABA at concentration between 1 mM and 0.1 nM in the presence or absence of the required concentration of PAM. The reaction was terminated by addition of ice-cold wash buffer (50 mM Tris-HCl, 5 mM MgCl2, 50 mM NaCl, pH 7.4) followed by rapid filtration under vacuum through Printed Filtermat A glass fiber filters (Wallac) (0.05% PEI treated) using a Micro 96 Harvester (Skatron Instruments). The filters were dried for 30 min at 50° C., then a paraffin scintillant pad was melted onto the filters and the bound radioactivity was determined using a 1450 Microbeta Trilux (Wallac) scintillation counter.
GABA dose-response curves in the presence and absence of test compounds were constructed using the 4-parameter logistic equation, y=ymax+((ymin−ymax)/1+(x/C)^D), where C=EC50 and D=slope factor.

T1 sequence (Q9UBS5 15-961 limits assumed): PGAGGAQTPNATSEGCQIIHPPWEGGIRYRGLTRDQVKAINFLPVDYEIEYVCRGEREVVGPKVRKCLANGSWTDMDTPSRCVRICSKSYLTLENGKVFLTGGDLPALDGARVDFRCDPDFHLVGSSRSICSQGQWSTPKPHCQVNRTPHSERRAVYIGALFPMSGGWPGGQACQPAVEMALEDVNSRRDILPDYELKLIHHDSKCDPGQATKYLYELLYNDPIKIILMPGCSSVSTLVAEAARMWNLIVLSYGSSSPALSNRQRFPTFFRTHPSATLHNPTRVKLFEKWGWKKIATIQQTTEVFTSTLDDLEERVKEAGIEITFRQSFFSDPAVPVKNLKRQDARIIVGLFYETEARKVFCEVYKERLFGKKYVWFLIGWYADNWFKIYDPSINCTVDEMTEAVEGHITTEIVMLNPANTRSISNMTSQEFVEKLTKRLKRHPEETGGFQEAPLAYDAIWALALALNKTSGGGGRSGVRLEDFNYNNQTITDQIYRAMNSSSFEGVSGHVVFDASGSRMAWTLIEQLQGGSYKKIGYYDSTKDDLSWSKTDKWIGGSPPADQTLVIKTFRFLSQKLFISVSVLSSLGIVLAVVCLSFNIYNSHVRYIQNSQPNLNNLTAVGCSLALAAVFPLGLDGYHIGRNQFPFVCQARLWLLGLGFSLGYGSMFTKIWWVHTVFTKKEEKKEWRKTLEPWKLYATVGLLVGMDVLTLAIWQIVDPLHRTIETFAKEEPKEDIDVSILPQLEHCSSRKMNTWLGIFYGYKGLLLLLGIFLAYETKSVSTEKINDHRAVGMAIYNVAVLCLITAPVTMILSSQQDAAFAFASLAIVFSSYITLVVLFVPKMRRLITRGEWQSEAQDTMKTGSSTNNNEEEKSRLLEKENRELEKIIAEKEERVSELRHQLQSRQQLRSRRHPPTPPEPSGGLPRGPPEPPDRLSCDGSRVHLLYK
T1 sequence (O75899 42-941): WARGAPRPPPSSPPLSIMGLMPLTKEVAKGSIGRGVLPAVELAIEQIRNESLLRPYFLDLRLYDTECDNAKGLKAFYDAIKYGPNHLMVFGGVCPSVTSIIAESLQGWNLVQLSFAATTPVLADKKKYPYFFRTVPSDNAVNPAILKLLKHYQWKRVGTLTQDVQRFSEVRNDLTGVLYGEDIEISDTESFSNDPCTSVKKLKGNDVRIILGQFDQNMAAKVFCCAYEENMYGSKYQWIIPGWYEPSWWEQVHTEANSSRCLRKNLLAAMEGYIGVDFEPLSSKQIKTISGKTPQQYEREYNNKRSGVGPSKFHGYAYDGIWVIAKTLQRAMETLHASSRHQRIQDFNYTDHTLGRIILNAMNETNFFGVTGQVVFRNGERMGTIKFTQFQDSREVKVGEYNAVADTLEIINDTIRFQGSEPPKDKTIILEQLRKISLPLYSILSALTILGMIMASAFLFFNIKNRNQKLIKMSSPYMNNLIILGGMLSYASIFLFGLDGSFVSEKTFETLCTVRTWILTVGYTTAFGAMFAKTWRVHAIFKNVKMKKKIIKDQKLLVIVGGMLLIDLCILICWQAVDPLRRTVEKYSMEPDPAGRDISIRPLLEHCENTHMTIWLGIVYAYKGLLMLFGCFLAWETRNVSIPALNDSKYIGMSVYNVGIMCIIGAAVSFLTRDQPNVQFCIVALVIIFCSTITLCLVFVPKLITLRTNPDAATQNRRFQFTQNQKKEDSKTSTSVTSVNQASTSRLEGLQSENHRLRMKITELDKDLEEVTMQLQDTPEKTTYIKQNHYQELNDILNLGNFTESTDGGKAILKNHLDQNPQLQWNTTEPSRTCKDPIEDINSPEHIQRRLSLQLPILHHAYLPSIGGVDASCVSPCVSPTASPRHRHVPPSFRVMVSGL

SMILES | IC50 [nM]
COc1nc(NC(=O)c2c(F)cc(F)cc2F)c(C(=O)OC(C)(C)C)n1-c1ccc(F)cc1 [Example 8, Tert-butyl 1-(4-fluorophenyl)-2-methoxy-4-[(2,4,6-trifluorobenzoyl)amino]-1H-imidazole-5-carboxylate] | 810
CCc1nc(NC(=O)c2ccc(Cl)cc2Cl)c(C(=O)OC(C)(C)C)n1-c1ccc(F)cc1 [Example 20, Tert-butyl 4-[(2,4-dichlorobenzoyl)amino]-2-ethyl-1-(4-fluorophenyl)-1H-imidazole-5-carboxylate] | 3700
CCC1(C)CCC(C(C)(C)OC(=O)c2c(NC(=O)c3ccc(Cl)cc3Cl)nc(OC)n2-c2ccc(F)cc2)O1 (stereo not shown) [Example 14, 1-(5-ethyl-5-methyltetrahydrofuran-2-yl)-1-methylethyl 4-[(2,4-dichlorobenzoyl)amino]-1-(4-fluorophenyl)-2-methoxy-1H-imidazole-5-carboxylate] | 2100
COc1nc(NC(=O)c2ccc(Oc3ccccc3)nc2)c(C(=O)OC(C)(C)C)n1-c1ccc(F)cc1 [Example 7, Tert-butyl 1-(4-fluorophenyl)-2-methoxy-4-{[(6-phenoxypyridin-3-yl)carbonyl]amino}-1H-imidazole-5-carboxylate] | 1600
COCC(C)(C)OC(=O)c1c(NC(=O)c2ccc(Cl)cc2)nc(OC)n1-c1ccc2c(c1)OCO2 [Example 16, 2-methoxy-1,1-dimethylethyl 1-(1,3-benzodioxol-5-yl)-4-[(4-chlorobenzoyl)amino]-2-methoxy-1H-imidazole-5-carboxylate] | 1200
CCc1nc(NC(=O)c2ccc(N=[N+]=[N-])cc2)c(C(=O)OC(C)(C)C)n1-c1ccc(F)cc1 [Example 19, Tert-butyl 4-[(4-azidobenzoyl)amino]-2-ethyl-1-(4-fluorophenyl)-1H-imidazole-5-carboxylate] | 1100
COc1nc(NC(=O)c2cnn(-c3ccc(Cl)cc3)c2C(F)(F)F)c(C(=O)OC(C)(C)C)n1-c1ccc(F)cc1 [Example 6, Tert-butyl 4-({[1-(4-chlorophenyl)-5-(trifluoromethyl)-1H-pyrazol-4-yl]carbonyl}amino)-1-(4-fluorophenyl)-2-methoxy-1H-imidazole-5-carboxylate] | 1600
COc1nc(NC(=O)c2ccc(Cl)cc2)c(C(=O)OC(C)(C)C)n1-c1ccc(F)cc1 [Example 2, Tert-butyl 4-[(4-chlorobenzoyl)amino]-1-(4-fluorophenyl)-2-methoxy-1H-imidazole-5-carboxylate] | 3100
CCOC(=O)C1(OC(=O)c2c(NC(=O)c3ccc(Cl)cc3Cl)nc(OC)n2-c2ccc(F)cc2)CC1 [Example 13, 1-(ethoxycarbonyl)cyclopropyl 4-[(2,4-dichlorobenzoyl)amino]-1-(4-fluorophenyl)-2-methoxy-1H-imidazole-5-carboxylate] | 2000
COc1nc(NC(=O)C2COc3ccccc3O2)c(C(=O)OC(C)(C)C)n1-c1ccc(F)cc1 (stereo not shown) [Example 3, Tert-butyl 4-[(2,3-dihydro-1,4-benzodioxin-2-ylcarbonyl)amino]-1-(4-fluorophenyl)-2-methoxy-1H-imidazole-5-carboxylate] | 1500
COCC(C)(C)OC(=O)c1c(NC(=O)C2COc3ccccc3O2)nc(OC)n1-c1ccc2c(c1)OCO2 (stereo not shown) [Example 15, 2-methoxy-1,1-dimethylethyl 1-(1,3-benzodioxol-5-yl)-4-[(2,3-dihydro-1,4-benzodioxin-2-ylcarbonyl)amino]-2-methoxy-1H-imidazole-5-carboxylate] | 1400
COc1nc(NC(=O)c2scc(S(=O)(=O)C(C)C)c2Cl)c(C(=O)OC(C)(C)C)n1-c1ccc(F)cc1 [Example 1, Tert-butyl 4-({[3-chloro-4-(isopropylsulfonyl)-2-thienyl]carbonyl}amino)-1-(4-fluorophenyl)-2-methoxy-1H-imidazole-5-carboxylate] | 4000
COc1nc(NC(=O)c2ccc(Cl)cc2Cl)c(C(=O)OC(C)(C)C)n1-c1ccc(F)cc1 [Example 9, Tert-butyl 4-[(2,4-dichlorobenzoyl)amino]-1-(4-fluorophenyl)-2-methoxy-1H-imidazole-5-carboxylate] | 2160
COc1nc(NC(=O)C(OC)(c2ccccc2)C(F)(F)F)c(C(=O)OC(C)(C)C)n1-c1ccc(F)cc1 (stereo not shown) [Example 5, Tert-butyl 1-(4-fluorophenyl)-2-methoxy4-[(3,3,3-trifluoro-2-methoxy-2-phenylpropanoyl)amino]-1H-imidazole-5-carboxylate] | 6200
COc1nc(NC(=O)c2ccc(Cl)cc2Cl)c(C(=O)OC(C)(C)COc2ccccc2)n1-c1ccc(F)cc1 [Example 12, 1,1-dimethyl-2-phenoxyethyl 4-[(2,4-dichlorobenzoyl)amino]-1-(4-fluorophenyl)-2-methoxy-1H-imidazole-5-carboxylate] | 960
COCC(C)(C)OC(=O)c1c(NC(=O)c2ccc(Cl)cc2Cl)nc(OC)n1-c1cccc(OC)c1 [Example 18, 2-methoxy-1,1-dimethylethyl 4-[(2,4-dichlorobenzoyl)amino]-2-methoxy-1-(3-methoxyphenyl)-1H-imidazole-5-carboxylate] | 1300
COc1nc(NC(=O)C2(c3ccc(Cl)cc3)CCCC2)c(C(=O)OC(C)(C)C)n1-c1ccc(F)cc1 [Example 4, Tert-butyl 4-({[1-(4-chlorophenyl)cyclopentyl]carbonyl}amino)-1-(4-fluorophenyl)-2-methoxy-1H-imidazole-5-carboxylate] | 1400
COCCOCC(C)(C)OC(=O)c1c(NC(=O)c2ccc(Cl)cc2Cl)nc(OC)n1-c1ccc(F)cc1 [Example 10, 2-(2-methoxyethoxy)-1,1-dimethylethyl 4-[(2,4-dichlorobenzoyl)amino]-1-(4-fluorophenyl)-2-methoxy-1H-imidazole-5-carboxylate] | 1500
COCC(C)(C)OC(=O)c1c(NC(=O)COCc2ccccc2)nc(OC)n1-c1ccc2c(c1)OCO2 [Example 17, 2-methoxy-1,1-dimethylethyl 1-(1,3-benzodioxol-5-yl)-4-{[(benzyloxy)acetyl]amino}-2-methoxy-1H-imidazole-5-carboxylate] | 3400
COc1nc(NC(=O)c2ccc(Cl)cc2Cl)c(C(=O)OC(C)(C)COCC(F)(F)F)n1-c1ccc(F)cc1 [Example 11, 1,1-dimethyl-2-(2,2,2-trifluoroethoxy)ethyl 4-[(2,4-dichlorobenzoyl)amino]-1-(4-fluorophenyl)-2-methoxy-1H-imidazole-5-carboxylate] | 1100

same assay, conditions: potency of PAM in GTPγS assays

SMILES | EC50 [nM]
COc1nc(NC(=O)c2ccc(Cl)cc2Cl)c(C(=O)OC(C)(C)C)n1-c1ccc(F)cc1 [Example 9, Tert-butyl 4-[(2,4-dichlorobenzoyl)amino]-1-(4-fluorophenyl)-2-methoxy-1H-imidazole-5-carboxylate] | 2160
COc1nc(NC(=O)c2ccc(Cl)cc2Cl)c(C(=O)OC(C)(C)COc2ccccc2)n1-c1ccc(F)cc1 [Example 12, 1,1-dimethyl-2-phenoxyethyl 4-[(2,4-dichlorobenzoyl)amino]-1-(4-fluorophenyl)-2-methoxy-1H-imidazole-5-carboxylate] | 960
